# Test results: patent publication US20090304692A1, “TRIAZINE COMPOUNDS AS PI3 KINASE AND MTOR INHIBITORS” (Wyeth, priority 2008, published 2009)
# Where two headings read alike, the source gives them in different places.
# Assays:
# [1] = system: human tumor xenograft models; settings: cited from earlier work
# mTOR enzymes = mTOR enzymes (Homo sapiens, UniProt P42345); settings: read-out: mTOR enzymes IC50; cited from earlier work
# PI3K-γ = PI3K-γ (Homo sapiens, UniProt P48736); assay: PI3K-gamma fluorescence polarization assay; settings: read-out: IC50 PI3Kγ
# Chain of PI3K-γ (P48736 whole entry, species assumed): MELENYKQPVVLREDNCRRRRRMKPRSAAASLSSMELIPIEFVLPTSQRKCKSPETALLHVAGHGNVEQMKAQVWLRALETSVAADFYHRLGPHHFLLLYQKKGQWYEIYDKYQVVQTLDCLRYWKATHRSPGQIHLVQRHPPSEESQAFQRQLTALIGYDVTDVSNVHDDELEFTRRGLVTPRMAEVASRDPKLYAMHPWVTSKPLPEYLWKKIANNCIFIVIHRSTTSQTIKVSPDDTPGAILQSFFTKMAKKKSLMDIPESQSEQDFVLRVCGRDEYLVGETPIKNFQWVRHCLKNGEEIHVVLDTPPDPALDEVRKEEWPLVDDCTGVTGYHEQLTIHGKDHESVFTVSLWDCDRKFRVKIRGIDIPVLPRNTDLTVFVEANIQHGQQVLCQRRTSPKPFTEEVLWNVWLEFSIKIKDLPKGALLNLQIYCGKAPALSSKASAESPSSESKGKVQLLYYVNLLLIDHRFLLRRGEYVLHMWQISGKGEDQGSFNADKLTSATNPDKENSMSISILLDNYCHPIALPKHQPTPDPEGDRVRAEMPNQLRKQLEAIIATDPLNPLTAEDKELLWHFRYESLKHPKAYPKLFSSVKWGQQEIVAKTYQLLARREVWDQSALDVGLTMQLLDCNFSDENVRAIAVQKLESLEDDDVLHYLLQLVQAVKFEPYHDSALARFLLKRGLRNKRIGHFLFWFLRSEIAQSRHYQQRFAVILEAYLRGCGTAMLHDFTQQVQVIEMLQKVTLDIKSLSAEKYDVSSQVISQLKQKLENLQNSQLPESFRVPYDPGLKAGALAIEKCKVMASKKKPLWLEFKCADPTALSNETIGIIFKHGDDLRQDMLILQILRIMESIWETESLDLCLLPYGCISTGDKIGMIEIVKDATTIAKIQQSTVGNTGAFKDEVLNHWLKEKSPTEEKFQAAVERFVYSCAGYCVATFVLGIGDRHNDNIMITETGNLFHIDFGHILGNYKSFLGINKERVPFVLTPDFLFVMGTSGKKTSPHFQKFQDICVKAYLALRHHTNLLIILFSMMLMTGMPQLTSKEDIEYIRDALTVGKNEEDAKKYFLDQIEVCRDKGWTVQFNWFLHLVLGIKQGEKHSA
# [2] = system: human breast MDA-MB-361 tumor cell line; assay: In vitro cell culture growth assay (MTS), MDA-MB-361; assay type: cell-based; settings: Homo sapiens, MDA-MB-361, 72 h; MTS cell growth assay, three days after drug treatment; read-out: IC50 MDA-MB-361
# [3] = system: human prostate PC3-mm2 tumor cell line; assay: In vitro cell culture growth assay (MTS), PC3-mm2; assay type: cell-based; settings: Homo sapiens, PC3MM2, 72 h, MTS cell growth assay, three days after drug treatment; read-out: IC50 PC3-mm2
# Human mTOR (FLAG-TOR) = Human mTOR (FLAG-TOR) (Homo sapiens, UniProt P42345); assay: mTOR kinase assay (DELFIA format, purified enzyme); assay type: biochemical; settings: read-out: IC50 mTOR
# PI3K-α = PI3K-α (Homo sapiens, UniProt P42336); assay: PI3K-alpha fluorescence polarization assay; settings: read-out: IC50 PI3Kα
# Chain of PI3K-α (P42336 whole entry, species assumed): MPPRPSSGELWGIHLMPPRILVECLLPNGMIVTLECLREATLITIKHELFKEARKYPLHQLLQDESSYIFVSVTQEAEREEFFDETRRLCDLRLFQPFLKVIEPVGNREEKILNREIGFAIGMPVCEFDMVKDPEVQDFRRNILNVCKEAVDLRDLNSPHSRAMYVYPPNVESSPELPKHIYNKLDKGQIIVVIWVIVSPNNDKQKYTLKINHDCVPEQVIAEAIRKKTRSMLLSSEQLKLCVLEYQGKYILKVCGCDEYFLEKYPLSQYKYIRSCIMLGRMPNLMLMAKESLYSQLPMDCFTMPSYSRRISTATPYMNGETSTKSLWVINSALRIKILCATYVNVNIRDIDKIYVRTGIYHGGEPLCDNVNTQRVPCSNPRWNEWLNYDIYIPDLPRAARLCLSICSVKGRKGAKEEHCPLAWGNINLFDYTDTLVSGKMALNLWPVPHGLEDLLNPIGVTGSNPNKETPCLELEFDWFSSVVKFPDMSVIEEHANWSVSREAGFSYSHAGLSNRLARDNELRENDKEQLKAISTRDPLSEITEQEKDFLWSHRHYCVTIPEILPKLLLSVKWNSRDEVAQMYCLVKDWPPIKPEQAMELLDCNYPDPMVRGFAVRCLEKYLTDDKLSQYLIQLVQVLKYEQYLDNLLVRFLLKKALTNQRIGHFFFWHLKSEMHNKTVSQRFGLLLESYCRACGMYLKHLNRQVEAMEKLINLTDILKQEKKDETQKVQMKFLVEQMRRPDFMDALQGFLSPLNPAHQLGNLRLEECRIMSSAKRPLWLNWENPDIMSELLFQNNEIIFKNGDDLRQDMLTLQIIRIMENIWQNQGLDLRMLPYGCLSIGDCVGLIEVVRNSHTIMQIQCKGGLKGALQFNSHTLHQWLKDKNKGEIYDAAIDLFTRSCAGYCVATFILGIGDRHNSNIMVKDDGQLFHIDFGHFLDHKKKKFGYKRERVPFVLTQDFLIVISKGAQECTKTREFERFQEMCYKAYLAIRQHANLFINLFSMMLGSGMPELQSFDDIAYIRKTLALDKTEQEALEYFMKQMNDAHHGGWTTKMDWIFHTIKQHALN
# Chain of PI3K-α (P27986 whole entry partner, species assumed): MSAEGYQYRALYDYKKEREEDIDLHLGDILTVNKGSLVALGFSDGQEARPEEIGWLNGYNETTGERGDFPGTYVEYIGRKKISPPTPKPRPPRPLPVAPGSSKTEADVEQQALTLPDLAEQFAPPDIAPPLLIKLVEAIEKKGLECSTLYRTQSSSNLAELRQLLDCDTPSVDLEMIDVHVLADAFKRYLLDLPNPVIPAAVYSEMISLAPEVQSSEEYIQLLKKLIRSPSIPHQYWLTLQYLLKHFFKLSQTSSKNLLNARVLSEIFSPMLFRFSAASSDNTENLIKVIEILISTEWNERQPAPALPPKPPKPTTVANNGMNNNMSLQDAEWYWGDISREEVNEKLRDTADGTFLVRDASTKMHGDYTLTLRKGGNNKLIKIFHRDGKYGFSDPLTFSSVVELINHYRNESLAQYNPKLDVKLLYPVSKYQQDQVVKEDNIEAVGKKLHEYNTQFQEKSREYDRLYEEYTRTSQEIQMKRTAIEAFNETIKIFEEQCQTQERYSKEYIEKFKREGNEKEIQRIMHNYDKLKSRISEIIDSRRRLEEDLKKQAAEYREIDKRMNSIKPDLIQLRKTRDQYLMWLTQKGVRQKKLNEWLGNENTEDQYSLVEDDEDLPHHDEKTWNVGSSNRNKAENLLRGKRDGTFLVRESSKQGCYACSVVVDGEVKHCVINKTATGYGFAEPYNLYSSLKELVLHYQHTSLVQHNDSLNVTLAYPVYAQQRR
# [4] = system: acute lymphoblastic leukemia xenograft; settings: NOS/SCID xenograft mouse model of acute lymphoblastic leukemia; cited from earlier work
IC50 (PI3K-γ) [nM],IC50 [2] [nM],IC50 [3] [nM],melting point [°C],IC50 (Human mTOR (FLAG-TOR)) [nM],IC50 (PI3K-α) [nM],Structure (SMILES),"growth of human xenograft tumors ([1]; chronic oral administration, 400 mg/kg, mouse, A549, PC-3, WiDr)",IC50 (mTOR enzymes) [nM],activity against human tumor models ([1]; prostrate (PC-3) and glioblastoma (U-87) xenografts),activity in xenograft mouse model [4],"activity against human tumor models ([1]; I.P. dosing in mice, U87MG, PC3, MDA-MB-468, MDA-MB-435, HCT 116, SKOV3, IGROV-1 xenografts)"
55,50,82,170,13,6,"CN1CCN(C(=O)c2ccc(NC(=O)Nc3ccc(-c4nc(N5CCC5)nc(N5CCOCC5)n4)cc3)cc2)CC1 [Example 196, 1-[4-(4-azetidin-1-yl-6-morpholin-4-yl-1,3,5-triazin-2-yl)phenyl]-3-{4-[(4-methylpiperazin-1-yl)carbonyl]phenyl}urea]",,,,,
3380,,,212,26,241,"COC(=O)c1ccc(NC(=O)Nc2ccc(-c3nc(N4CCC4)nc(N4CCOCC4)n3)cc2)cc1 [Example 141, methyl 4-({[4-(4-azetidin-1-yl-6-morpholin-4-yl-1,3,5-triazin-2-yl)phenyl]carbamoyl}amino)benzoate]",,,,,
20,68,31,296 to 298,1,3,"O=C(Nc1ccc(C(=O)NCc2ccccn2)cc1)Nc1ccc(-c2nc(N3CCOCC3)nc(N3CCOCC3)n2)cc1 [Example 263, 4-({[4-(4,6-dimorpholin-4-yl-1,3,5-triazin-2-yl)phenyl]carbamoyl}amino)-N-(pyridin-2-ylmethyl)benzamide]",,,,,
498,,,204,21,115,"O=C(Nc1ccc(C(=O)O)cc1)Nc1ccc(-c2nc(N3CCC3)nc(N3CCOCC3)n2)cc1 [Example 195, 4-({[4-(4-azetidin-1-yl-6-morpholin-4-yl-1,3,5-triazin-2-yl)phenyl]carbamoyl}amino) benzoic acid]",,,,,

# Further lines, the molecule ahead of its results:
Structure (SMILES),IC50 (PI3K-γ) [nM],IC50 [2] [nM],IC50 [3] [nM],melting point [°C],IC50 (Human mTOR (FLAG-TOR)) [nM],IC50 (PI3K-α) [nM],"growth of human xenograft tumors ([1]; chronic oral administration, 400 mg/kg, mouse, A549, PC-3, WiDr)",IC50 (mTOR enzymes) [nM],activity against human tumor models ([1]; prostrate (PC-3) and glioblastoma (U-87) xenografts),activity in xenograft mouse model [4],"activity against human tumor models ([1]; I.P. dosing in mice, U87MG, PC3, MDA-MB-468, MDA-MB-435, HCT 116, SKOV3, IGROV-1 xenografts)"
"FC(F)c1nc2ccccc2n1-c1nc(N2CCOCC2)nc(N2CCOCC2)n1 [ZSTK474, 2-(2-difluoromethylbenzoimidazol-1-yl)-4,6-dimorpholino-1,3,5-triazine]",,,,,,,completely inhibited growth,> 10000,,,
"O=C(Nc1ccncc1)Nc1ccc(-c2nc(N3CCC3)nc(N3CCOCC3)n2)cc1 [Example 140, 1-[4-(4-azetidin-1-yl-6-morpholin-4-yl-1,3,5-triazin-2-yl)phenyl]-3-pyridin-4-ylurea]",100,225,279,212,27,27,,,,,
"Cn1c(=O)n(-c2ccc(C(C)(C)C#N)cc2)c2c3cc(-c4cnc5ccccc5c4)ccc3ncc21 [NVP-BEZ-235, 2-methyl-2-(4-(3-methyl-2-oxo-8-(quinolin-3-yl)-2,3-dihydro-1H-imidazo[4,5-c]quinolin-1-yl)phenyl)propanenitrile]",,,,,,,,,demonstrated activity,,
CO[C@H]1C[C@@H]2CC[C@@H](C)[C@@](O)(O2)C(=O)C(=O)N2CCCC[C@H]2C(=O)O[C@H]([C@H](C)C[C@@H]2CC[C@@H](OC(=O)C(C)(CO)CO)[C@H](OC)C2)CC(=O)[C@H](C)/C=C(\C)[C@@H](O)[C@@H](OC)C(=O)[C@H](C)C[C@H](C)/C=C/C=C/C=C/1C [Torisel],,,,,,,,,,active,
"CC(=O)c1ccc(NC(=O)Nc2ccc(-c3nc(N4CCOCC4)nc(N4C[C@H]5C[C@@H]4CN5C(=O)OC(C)(C)C)n3)cc2)cc1 [Example 257, tert-butyl (1R,4R)-5-[4-(4-{[(4-acetylphenyl)carbamoyl]amino}phenyl)-6-morpholin-4-yl-1,3,5-triazin-2-yl]-2,5-diazabicyclo[2.2.1]heptane-2-carboxylate]",323,,,202,85,90,,,,,
"COC(=O)c1ccc(NC(=O)Nc2ccc(-c3nc(C(C)C)nc(N4CCOCC4)n3)cc2)cc1 [Example 300, methyl 4-[({4-[4-(1-methylethyl)-6-morpholin-4-yl-1,3,5-triazin-2-yl]phenyl}carbamoyl)amino]benzoate]",106,297,340,218,5.3,39,,,,,
"O=C(Nc1ccncc1)Nc1ccc(-c2nc(N3CCOCC3)nc(N3CC4CCC(C3)O4)n2)cc1 [Example 48, 1-{4-[4-morpholin-4-yl-6-(8-oxa-3-azabicyclo[3.2.1]oct-3-yl)-1,3,5-triazin-2-yl]phenyl}-3-pyridin-4-ylurea]",40,38,48,258,1.8,6,,,,,
"Oc1cccc(-c2nc(N3CCOCC3)c3oc4ncccc4c3n2)c1 [PI103, 3-(4-(4-morpholinyl)pyrido[3′,2′:4,5]furo[3,2-d]pyrimidin-2-yl)phenol]",,,,,,,,,,,demonstrated activity
"O=C(Nc1ccncc1)Nc1ccc(-c2nc(OC3CCOCC3)nc(N3CCOCC3)n2)cc1 [Example 59, 1-{4-[4-morpholin-4-yl-6-(tetrahydro-2H-pyran-4-yloxy)-1,3,5-triazin-2-yl]phenyl}-3-pyridin-4-ylurea]",30,14,16,238,1.05,3,,,,,
